We go through one molecule from patent publication EP1407768A2, “The potassium channel opener retigabine for the treatment of diseases” (GLAXO GROUP LIMITED, priority 1999, dated 2001).

Assay [1] has as its system pentylene tetrazol-induced seizures in rats. The following applies: protection against pentylene tetrazol-induced seizures in rats; cited from earlier work.
For assay [2], the target named is T1, KCNQ2/3 potassium channel (Homo sapiens, UniProt O43525+O43526).
T1 construct: expressed in transfected cells; host or cells: Xenopus laevis oocytes injected with capped cRNA (KCNQ2 in pCIN3, KCNQ3 in pCIH6)
Briefly: Two-microelectrode voltage-clamp of Xenopus oocytes expressing equimolar KCNQ2 plus KCNQ3. The class given is cell-based. The following applies: for fold induction at 10 µM: read-out: increase of outward KCNQ current amplitude, 10µM retigabine; for increase of the rate of current activation: data fitted to a single exponential. The text has this:
Human KCNQ2 and KCNQ3 potassium channels were cloned from a human brain CDNA library using standard methodology. All clones were sequenced and were identical to those reported in the literature (Charlier, C., Singh, N.A., Ryan, S.G., Lewis, T.B., Reus, B. E., Leach, R.J. Leppert, M. (1998). A pore mutation in a novel KQT-like potassium channel gene in an idiopathic epilepsy family. Nature Genetics 18: 53-55 and Singh, N.A., Charlier, C., Stauffer, D., DuPont, B.R., Leach, R.J., Melis, R., Ronen, G.M., Bjerre, I., Quattlebaum, T., Murphy, J.V., McHarg, M.L., Gagnon, D., Rosales, T.O., Peiffer, A., Anderson, E & Leppert, M. (1998) Nature Genetics, 18: 25-29).
Adult female Xenopus laevis (Blades Biologicals) were anaesthetised using 0.2% tricaine (3-aminobenzoic acid ethyl ester), killed and the ovaries rapidly removed. Oocytes were de-folliculated by collagenase digestion (Sigma type I, 1.5 mg ml^-1) in divalent cation-free OR2 solution (82.5mM NaCl, 2.5mM KCI, 1.2mM NaH2PO4, 5mM HEPES; pH 7.5 at 25°C). Single stage V and VI oocytes were transferred to ND96 solution (96mM NaCl, 2mM KCI, 1mM MgCl2, 1.8mM CaCl2, 5mM HEPES; pH 7.5 at 25°C) which contained 50µg ml^- ^1 gentamycin and stored at 18°C.
KCNQ2 (in pCIN3 vector) and KCNQ3 (in pCIH6) were linearised and transcribed to RNA using T7 or T3 polymerase (Promega Wizard kit). m'G(5')pp(5')GTP capped cRNA was injected into oocytes (20-50nl of 1µgµl^-1 RNA per oocyte) and whole-cell currents were recorded using two-microelectrode voltage-clamp (Geneclamp amplifier, Axon instruments Inc.) 3 to 5 days post-RNA injection. […] In all experiments oocytes were voltage-clamped at a holding potential of -90mV in ND96 solution (superfused at 2ml per min.) and test compounds were applied by addition to this extracellular solution. Current-voltage curves were constructed by applying 800ms voltage-clamp pulses from the holding potential of -90mV to test potentials between -85mV and +30mV..
Whole-cell currents were recorded from oocytes expressing KCNQ2 alone, KCNQ3 alone and an equimolar combination of KCNQ2 plus KCNQ3. Mean current amplitude (at +20mV) was 152 +/- 21 nA for KCNQ2 alone, 157 +/-19nA for KCNQ3 alone and 1467 +/- 420nA for KCNQ2 & KCNQ3. Further characterisation of the KCNQ2/KCNQ3 heteromeric channel (current-voltage curve, conductance plot, linopirdine block) gave similar results to those reported in the literature (Yang, W.-P., Levesque, P.C., Little, W.A., Conder, M.L., Ramakrishnan, P., Neubauer, M.G. & Blanar, M.A, (1998) Functional expression of two KvLQT1-related potassium channels responsible for an inherited idiopathic epilepsy. J. Biol. Chem., 31: 19419-19423 and Wang, H.-S., Pan, Z., Shi, W., Brown, B.S.,. Wymore, R.S., Cohen, I.S., Dixon, J.E. & McKinnon, D (1998) KCNQ2 and KCNQ3 potassium channel subunits: molecular correlates of the M-channel. Science 282: 1890-1893).
The effects of retigabine were studied in oocytes expressing equimolar KCNQ2 plus KCNQ3. Application of 10µM retigabine led to a pronounced 20mV hyperpolarising shift in the threshold for KCNQ current activation (n=5), such that an augmentation of KCNQ current was seen over the normal physiological range of membrane potentials. For example, at a test potential of -60mV, outward KCNQ current amplitude increased 8-fold in the presence of retigabine (6.2-fold at -70mV; 7.1-fold at -50mV; n=5). These changes in KCNQ current amplitude were associated with an increase in the rate of current activation: Retigabine increased the rate of current activation 15-fold at a test potential of -40mV, and 3-fold at a test potential of -30mV (data fitted to a single exponential in each case).
Application of retigabine led to a marked alteration in the properties of the KCNQ2/3 tail currents. In these experiments the voltage clamp protocols comprised a 1s prepulse from -100mV to +40mV to fully activate the KCNQ2/3 channel, followed by a 6s pulse to test potentials between -30mV and -110mV.

For a further assay, the target named is T2, KCNQ2 (Homo sapiens, UniProt O43526).
T2 construct: expressed in transfected cells; host or cells: Xenopus oocytes, expression vector pSP64t
The assay can be described thus: Voltage-clamp of Xenopus oocytes expressing KCNQ2 alone (pSP64t vector). The class given is cell-based. Conditions: 10µM retigabine.

Assay [3] relates to carageenan model of inflammatory pain. Briefly: Carageenan model of inflammatory pain. The class given is in vivo. The text has this: Br. J. Pharmacol. 120: P78).
The target in assay [4] is T1, KCNQ2/3 potassium channel. Briefly: Current clamp of oocytes expressing KCNQ2 plus KCNQ3: hyperpolarisation of the cell. The class given is cell-based.

Where two headings read alike, the source gives them in different places.

T1 sequence (O43526 1-844 isoform O43526-3): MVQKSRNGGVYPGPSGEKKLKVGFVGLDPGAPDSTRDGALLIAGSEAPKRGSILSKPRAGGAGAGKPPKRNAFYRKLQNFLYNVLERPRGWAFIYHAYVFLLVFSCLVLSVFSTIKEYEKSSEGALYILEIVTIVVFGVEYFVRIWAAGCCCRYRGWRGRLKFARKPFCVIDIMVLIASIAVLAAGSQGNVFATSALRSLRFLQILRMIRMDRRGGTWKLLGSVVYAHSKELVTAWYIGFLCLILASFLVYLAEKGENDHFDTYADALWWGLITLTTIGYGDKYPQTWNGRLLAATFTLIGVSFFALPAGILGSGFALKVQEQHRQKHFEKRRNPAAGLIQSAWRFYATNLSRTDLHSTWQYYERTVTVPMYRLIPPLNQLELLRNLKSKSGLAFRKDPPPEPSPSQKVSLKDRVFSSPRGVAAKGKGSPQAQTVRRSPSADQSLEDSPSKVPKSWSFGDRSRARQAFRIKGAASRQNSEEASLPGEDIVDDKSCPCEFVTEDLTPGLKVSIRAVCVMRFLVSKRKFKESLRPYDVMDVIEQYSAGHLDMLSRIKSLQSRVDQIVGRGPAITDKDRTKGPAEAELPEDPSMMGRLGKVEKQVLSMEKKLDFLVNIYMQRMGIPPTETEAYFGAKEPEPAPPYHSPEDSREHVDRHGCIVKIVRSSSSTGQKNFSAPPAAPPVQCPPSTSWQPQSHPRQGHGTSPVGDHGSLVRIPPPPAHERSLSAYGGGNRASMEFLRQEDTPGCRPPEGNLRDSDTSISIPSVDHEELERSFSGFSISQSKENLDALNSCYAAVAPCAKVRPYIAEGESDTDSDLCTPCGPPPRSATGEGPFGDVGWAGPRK
T1 sequence (O43525 whole entry): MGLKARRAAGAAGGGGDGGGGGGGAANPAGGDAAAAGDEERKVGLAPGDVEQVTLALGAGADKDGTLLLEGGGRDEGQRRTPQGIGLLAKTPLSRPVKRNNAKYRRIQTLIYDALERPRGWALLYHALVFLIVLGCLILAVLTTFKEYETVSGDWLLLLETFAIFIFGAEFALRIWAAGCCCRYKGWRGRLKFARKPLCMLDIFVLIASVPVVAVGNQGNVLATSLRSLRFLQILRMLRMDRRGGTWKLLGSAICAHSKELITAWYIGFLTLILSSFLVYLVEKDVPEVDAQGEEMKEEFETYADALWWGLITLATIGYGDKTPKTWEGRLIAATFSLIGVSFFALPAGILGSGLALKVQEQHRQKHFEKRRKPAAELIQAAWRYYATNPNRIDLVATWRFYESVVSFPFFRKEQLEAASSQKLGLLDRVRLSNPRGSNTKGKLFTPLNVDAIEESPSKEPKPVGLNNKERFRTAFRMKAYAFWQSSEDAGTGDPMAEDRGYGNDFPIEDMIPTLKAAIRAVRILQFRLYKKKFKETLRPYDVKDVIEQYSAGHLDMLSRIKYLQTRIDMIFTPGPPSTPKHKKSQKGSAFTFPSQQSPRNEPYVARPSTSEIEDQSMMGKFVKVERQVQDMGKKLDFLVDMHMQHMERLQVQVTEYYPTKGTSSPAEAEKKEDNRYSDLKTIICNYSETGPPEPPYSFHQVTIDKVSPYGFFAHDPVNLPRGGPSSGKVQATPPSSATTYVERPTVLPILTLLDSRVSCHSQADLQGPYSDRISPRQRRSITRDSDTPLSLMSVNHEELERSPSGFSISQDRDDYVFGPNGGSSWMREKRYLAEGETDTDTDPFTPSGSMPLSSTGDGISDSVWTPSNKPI
T2 sequence (O43526 1-844 isoform O43526-3): as the sequence (O43526 1-844 isoform O43526-3) above

As for `CCOC(=O)Nc1ccc(NCc2ccc(F)cc2)cc1N` [retigabine, 2-amino-4-(4-fluorobenzylamino)-1-ethoxycarbonylaminobenzene], the ED50 in assay [1] is 6.2 mg/kg; in assay [3], 4.5 mg/kg. Moreover, the “hyperpolarising shift in the threshold for KCNQ current activation” value in assay [2] (10µM retigabine, oocytes expressing equimolar KCNQ2 plus KCNQ3, n=5) worked out at 20 mV. Also, the fold induction at 10 µM is 7.1 in assay [2] (test potential -50mV, n=5); 8 in assay [2] (test potential -60mV, n=5); 6.2 in assay [2] (test potential -70mV, n=5). Moreover, the “increase of the rate of current activation” value was determined as 3 fold in assay [2] (test potential -30mV) and 15 fold in assay [2] (test potential -40mV). Further, the “KCNQ2/3 tail current deactivation” value in assay [2] (test potentials -30mV, -40mV after 1s prepulse from -100mV to +40mV) is reported as “deactivation does not occur”. For the same molecule, the “rate of KCNQ2/3 channel deactivation in comparison to control” value in assay [2] (test potentials -50mV to -110mV after 1s prepulse from -100mV to +40mV) is on record as “significantly slowed”. The “mean delay (rate of current activation)” value at KCNQ2 (at -40mV, control 132+/-16ms) was found to be 75 ± 7 ms. Moreover, the KCNQ current amplitude on KCNQ2 (at -50mV, n=7, control = 145+/-34nA) is recorded as 501+/-116 nA. On KCNQ2 (oocytes expressing KCNQ2 alone), the “hyperpolarising shift in the threshold for KCNQ2 current activation” value was 20 mV. In addition, the EC50 in assay [4] was determined as 5.2 µM. Moreover, in assay [4] (hyperpolarisation of oocytes held under current clamp), the Hill slope is 1.1 ± 0.1.
